The values below come from patent publication US20230414502A1, “Method for Preparing an Aqueous Nanocrystalline Suspension Containing Nanocrystals of Pharmaceutically Active Ingredient and a Combination of Stabilizers, Aqueous Nanocrystalline Suspension and Methods of Use Thereof” (Vysoka skola chemicko-technologicka v Praze, priority 2022, published 2023).

The conditions of series [1]: literature values, cell line not given; read-out: IC50 documented for reference drugs; cited from earlier work.
The nature of series [2]: Microscopy of precipitation/recrystallization in DMEM + 10% FBS or PBS, no cells. The class given is physicochemical. The following applies: for Solubility in DMSO (in words): 500 μg/mL at most 1% DMSO not reachable; for Recrystallization of API added from DMSO into DMEM + 10% FBS (microscopy): 1% DMSO, 100 μg/mL abiraterone acetate and telmisartan, 500 μg/mL others, no cells.

The subject of a further series is macrophages J774A.1. Nature of the series: Microscopy of samples incubated with macrophages. The class given is cell-based, mouse. The following applies: for Recrystallization/precipitation of API added from DMSO, tested with J774A.1 (microscopy): 1% DMSO, 100 or 500 μg/mL, DMEM + 10% FBS. Here is the method:
For the purpose of the crystallization form DMSO solution study, the J774A.1 cells in the DMEM+10% FBS+1% AA medium were inoculated in a 96 well-plate with a glass-bottom (Cellvis, P96-1.5H-N) with a density of 2×10^4 cells/well and left to adhere overnight. Then, the medium was removed by aspiration, and nanocrystal samples pre-diluted in the fresh medium were added (from 500 μg/mL decreasing in half concentration trend; 90 μL/well). In some cases (abiraterone acetate, telmisartan), it was not possible to reach 500 μg/mL API concentration together with total DMSO content of maximum 1% (1% DMSO is top limit standard in biochemical testing considering the DMSO toxicity and effect on the cell viability and performance) and therefore these substances were tested at 100 μg/mL concentration. Here the great potential of nanocrystals is clearly presented, since the nanocrystal samples were possible to be prepared and tested at 500 μg/mL even in cases where the DMSO solvents would not be accepted for in vitro testing. If possible, all samples were tested at concentration 500 μg/mL (from nanocrystals or from DMSO stock solutions) and incubated in the well-plate for 18 h.

Entries after “also recorded” stand apart in the source; their conditions may differ.

A word on the IC50: it is the midpoint of a concentration-inhibition curve. Turning to `O=c1[nH]cc(F)c(=O)[nH]1` [5-fluorouracil], in series [1], the IC50 was 39 µM. With `CC(=O)O[C@H]1CC[C@@]2(C)C(=CC[C@@H]3[C@@H]2CC[C@]2(C)C(c4cccnc4)=CC[C@@H]32)C1` [Abiraterone acetate], in series [2], the “Solubility in DMSO (in words)” value is listed as “low solubility”; the “Recrystallization of API added from DMSO into DMEM + 10% FBS (microscopy)” value is “formation of both new crystals and solid amorphous phase occurs”. Consider `CCOc1nc2cccc(C(=O)OC(C)OC(=O)OC3CCCCC3)c2n1Cc1ccc(-c2ccccc2-c2nnn[nH]2)cc1` (centres unmarked) [Candesartan cilexetil], for which, in series [2], the “Recrystallization of API added from DMSO into DMEM + 10% FBS (microscopy)” value is recorded as “did not form macroscopic crystals”.

With `COc1cc(/C=C/C(=O)CC(=O)/C=C/c2ccc(O)c(OC)c2)ccc1O` [Curcumin], the “Recrystallization/precipitation of API added from DMSO, tested with J774A.1 (microscopy)” value with macrophages J774A.1 is “most significant recrystallization/precipitation; also recorded: precipitation/recrystallization from DMSO occurred and was well detectable”. `CC(C)(C)c1cc(C(C)(C)C)c(NC(=O)c2c[nH]c3ccccc3c2=O)cc1O` [Ivacaftor]: the “Recrystallization/precipitation of API added from DMSO, tested with J774A.1 (microscopy)” value in the series with macrophages J774A.1 is “most significant recrystallization/precipitation; also recorded: precipitation/recrystallization from DMSO occurred and was well detectable”. In the series with macrophages J774A.1 (8-125 μg/mL), the “Effect on J774A.1 cells, API added as DMSO solution” value is “causes cell death (membrane blobbing)”. On to `COc1cc(C2Oc3cc([C@H]4Oc5cc(O)cc(O)c5C(=O)[C@@H]4O)ccc3OC2CO)ccc1O` (some centres unmarked) [Silybinin], for which, in series [1], the IC50 is 180 µM.

Take `CCCc1nc2c(C)cc(-c3nc4ccccc4n3C)cc2n1Cc1ccc(-c2ccccc2C(=O)O)cc1` [Telmisartan]: in series [2], the “Solubility in DMSO (in words)” value was “low solubility” and the “Recrystallization of API added from DMSO into DMEM + 10% FBS (microscopy)” value was “did not form macroscopic crystals”. As for `N.N.[Cl][Pt][Cl]` [cisplatin], the IC50 in series [1] was 181 µM.
